Data as given in patent US20100189683A1, “Pulsatile Dosing of Gossypol for Treatment of Disease” (Ascenta Therapeutics, Inc., priority 2008, published 2010).

Tested on: patients with advanced cancer
Experiment: Phase I clinical trial, daily versus pulsatile dosing of (−)-gossypol: adverse events graded by NCI-CTCAE v3 (Daily N = 38, BID × 3 d N = 21, Weekly N = 12)
Format: in vivo, human
Experimental: A phase I clinical trial was carried out to compare the maximum tolerated dose and safety of daily (i.e., continuous) versus pulsatile (i.e., intermittent) dosing of (−)-gossypol in patients with advanced cancer. A secondary objective of this study was to identify any anti-tumor activity of (−)-gossypol. Patients were treated with increasing doses of (−)-gossypol according to the following dosing schedules: “Daily” dosing: 5 to 60 mg/day of (−)-gossypol on 21 days per 28 day cycle; “BID×3d” dosing: 30 to 80 mg BID of (−)-gossypol on 3 consecutive days (e.g., Monday-Tuesday-Wednesday) repeated every other week per 28 day cycle; and “Weekly” dosing: 80 to 200 mg of (−)-gossypol once weekly per 28 day cycle. Adverse events (AEs) were graded by NCI-CTCAE v3.

For `Cc1cc2c(C(C)C)c(O)c(O)c(C=O)c2c(O)c1-c1c(C)cc2c(C(C)C)c(O)c(O)c(C=O)c2c1O` [(−)-gossypol], the ALT increase (BID × 3 d, Grade ½) was 2 (10) N (%), the AST increase (BID × 3 d, Grade ½) was 2 (10) N (%) and the Abdominal discomfort (BID × 3 d, Grade ½) was 1 (5) N (%). The Abdominal distention (BID × 3 d, Grade ½) was 3 (14) N (%), the Abdominal pain (BID × 3 d, Grade ½) was 5 (24) N (%) and the Albumin decreased (BID × 3 d, Grade ½) was 0 N (%). The Alkaline phosphatase increase (BID × 3 d, Grade ½) was 2 (10) N (%), the “Anorexia or decreased appetite” value (BID × 3 d, Grade ½) was 10 (48) N (%) and the “Any AE” value (BID × 3 d, Grade ½) was 16 (76) N (%). For the same molecule, the Back pain (BID × 3 d, Grade ½) was 1 (5) N (%), the Constipation (BID × 3 d, Grade ½) was 6 (29) N (%) and the Cough (BID × 3 d, Grade ½) was 0 N (%). The Creatinine increased (BID × 3 d, Grade ½) was 2 (10) N (%), the Creatinine phosphokinase increase (BID × 3 d, Grade ½) was 0 N (%) and the Dehydration (BID × 3 d, Grade ½) was 3 (14) N (%). For the same molecule, the Diarrhea (BID × 3 d, Grade ½) was 8 (38) N (%), the Dizziness (BID × 3 d, Grade ½) was 2 (10) N (%) and the Dry mouth (BID × 3 d, Grade ½) was 2 (10) N (%). The Dysgeusia (BID × 3 d, Grade ½) was 2 (10) N (%), the Dyspnea (BID × 3 d, Grade ½) was 5 (24) N (%) and the Fatigue/Asthenia (BID × 3 d, Grade ½) was 15 (72) N (%). The Flatulence (BID × 3 d, Grade ½) was 2 (10) N (%), the Headache (BID × 3 d, Grade ½) was 1 (5) N (%) and the Hepatic encephalopathy (BID × 3 d, Grade ½) was 0 N (%). The Hyperbilirubinaemia (BID × 3 d, Grade ½) was 0 N (%), the Hyperkalemia (BID × 3 d, Grade ½) was 1 (5) N (%) and the Hypocalcemia (BID × 3 d, Grade ½) was 0 N (%). For the same molecule, the Hypokalemia (BID × 3 d, Grade ½) was 1 (5) N (%), the Hyponatremia (BID × 3 d, Grade ½) was 1 (5) N (%) and the Infection (BID × 3 d, Grade ½) was 0 N (%). The Insomnia (BID × 3 d, Grade ½) was 1 (5) N (%), the Mental status changes (BID × 3 d, Grade ½) was 0 N (%) and the Nausea (BID × 3 d, Grade ½) was 14 (67) N (%). The Pain (BID × 3 d, Grade ½) was 3 (14) N (%), the Pancreatitis (BID × 3 d, Grade ½) was 0 N (%) and the Peripheral edema (BID × 3 d, Grade ½) was 0 N (%). For the same molecule, the “Pleural Effusion” value (BID × 3 d, Grade ½) was 0 N (%), the Pneumatosis intestinalis (BID × 3 d, Grade ½) was 0 N (%) and the Pneumonia (BID × 3 d, Grade ½) was 0 N (%). The Proteinurea (BID × 3 d, Grade ½) was 2 (10) N (%), the Pyrexia (BID × 3 d, Grade ½) was 3 (14) N (%) and the “Renal Failure” value (BID × 3 d, Grade ½) was 0 N (%). For the same molecule, the Sinusitis (BID × 3 d, Grade ½) was 0 N (%), the “Small intestinal obstruction (ileus)” value (BID × 3 d, Grade ½) was 0 N (%) and the “Troponin I or T increased” value (BID × 3 d, Grade ½) was 1 (5) N (%). The “Urinary Tract Infection” value (BID × 3 d, Grade ½) was 2 (10) N (%), the Vomiting (BID × 3 d, Grade ½) was 9 (43) N (%) and the Weight decreased (BID × 3 d, Grade ½) was 4 (19) N (%). For the same molecule, the “White blood cells increased” value (BID × 3 d, Grade ½) was 2 (10) N (%), the ALT increase (BID × 3 d, Grade ¾) was 0 N (%) and the AST increase (BID × 3 d, Grade ¾) was 0 N (%). The Abdominal discomfort (BID × 3 d, Grade ¾) was 0 N (%), the Abdominal distention (BID × 3 d, Grade ¾) was 0 N (%) and the Abdominal pain (BID × 3 d, Grade ¾) was 2 (10) N (%). For the same molecule, the Albumin decreased (BID × 3 d, Grade ¾) was 0 N (%), the Alkaline phosphatase increase (BID × 3 d, Grade ¾) was 0 N (%) and the “Anorexia or decreased appetite” value (BID × 3 d, Grade ¾) was 1 (5) N (%). The “Any AE” value (BID × 3 d, Grade ¾) was 11 (52) N (%), the Back pain (BID × 3 d, Grade ¾) was 0 N (%) and the Constipation (BID × 3 d, Grade ¾) was 0 N (%). For the same molecule, the Cough (BID × 3 d, Grade ¾) was 0 N (%), the Creatinine increased (BID × 3 d, Grade ¾) was 0 N (%) and the Creatinine phosphokinase increase (BID × 3 d, Grade ¾) was 1 (5) N (%). The Dehydration (BID × 3 d, Grade ¾) was 2 (10) N (%), the Diarrhea (BID × 3 d, Grade ¾) was 1 (5) N (%) and the Dizziness (BID × 3 d, Grade ¾) was 0 N (%). For the same molecule, the Dry mouth (BID × 3 d, Grade ¾) was 0 N (%), the Dysgeusia (BID × 3 d, Grade ¾) was 0 N (%) and the Dyspnea (BID × 3 d, Grade ¾) was 0 N (%). The Fatigue/Asthenia (BID × 3 d, Grade ¾) was 1 (5) N (%), the Flatulence (BID × 3 d, Grade ¾) was 0 N (%) and the Headache (BID × 3 d, Grade ¾) was 0 N (%). The Hepatic encephalopathy (BID × 3 d, Grade ¾) was 1 (5) N (%), the Hyperbilirubinaemia (BID × 3 d, Grade ¾) was 1 (5) N (%) and the Hyperkalemia (BID × 3 d, Grade ¾) was 1 (5) N (%). For the same molecule, the Hypocalcemia (BID × 3 d, Grade ¾) was 0 N (%), the Hypokalemia (BID × 3 d, Grade ¾) was 3 (14) N (%) and the Hyponatremia (BID × 3 d, Grade ¾) was 1 (5) N (%). The Infection (BID × 3 d, Grade ¾) was 0 N (%), the Insomnia (BID × 3 d, Grade ¾) was 0 N (%) and the Mental status changes (BID × 3 d, Grade ¾) was 0 N (%). The Nausea (BID × 3 d, Grade ¾) was 0 N (%), the Pain (BID × 3 d, Grade ¾) was 1 (5) N (%) and the Pancreatitis (BID × 3 d, Grade ¾) was 1 (5) N (%). The Peripheral edema (BID × 3 d, Grade ¾) was 0 N (%), the “Pleural Effusion” value (BID × 3 d, Grade ¾) was 0 N (%) and the Pneumatosis intestinalis (BID × 3 d, Grade ¾) was 1 (5) N (%). The Pneumonia (BID × 3 d, Grade ¾) was 1 (5) N (%), the Proteinurea (BID × 3 d, Grade ¾) was 0 N (%) and the Pyrexia (BID × 3 d, Grade ¾) was 0 N (%). For the same molecule, the “Renal Failure” value (BID × 3 d, Grade ¾) was 1 (5) N (%), the Sinusitis (BID × 3 d, Grade ¾) was 0 N (%) and the “Small intestinal obstruction (ileus)” value (BID × 3 d, Grade ¾) was 1 (5) N (%). The “Troponin I or T increased” value (BID × 3 d, Grade ¾) was 0 N (%), the “Urinary Tract Infection” value (BID × 3 d, Grade ¾) was 0 N (%) and the Vomiting (BID × 3 d, Grade ¾) was 2 (10) N (%). The Weight decreased (BID × 3 d, Grade ¾) was 0 N (%), the “White blood cells increased” value (BID × 3 d, Grade ¾) was 0 N (%) and the ALT increase (Daily, Grade ½) was 7 (18) N (%). The AST increase (Daily, Grade ½) was 6 (16) N (%), the Abdominal discomfort (Daily, Grade ½) was 0 N (%) and the Abdominal distention (Daily, Grade ½) was 4 (11) N (%). For the same molecule, the Abdominal pain (Daily, Grade ½) was 8 (21) N (%), the Albumin decreased (Daily, Grade ½) was 0 N (%) and the Alkaline phosphatase increase (Daily, Grade ½) was 6 (16) N (%). For the same molecule, the “Anorexia or decreased appetite” value (Daily, Grade ½) was 19 (50) N (%), the “Any AE” value (Daily, Grade ½) was 38 (100) N (%) and the Back pain (Daily, Grade ½) was 6 (16) N (%). The Constipation (Daily, Grade ½) was 9 (24) N (%), the Cough (Daily, Grade ½) was 8 (21) N (%) and the Creatinine increased (Daily, Grade ½) was 6 (16) N (%). The Creatinine phosphokinase increase (Daily, Grade ½) was 0 N (%), the Dehydration (Daily, Grade ½) was 9 (24) N (%) and the Diarrhea (Daily, Grade ½) was 13 (34) N (%). The Dizziness (Daily, Grade ½) was 7 (18) N (%), the Dry mouth (Daily, Grade ½) was 3 (8) N (%) and the Dysgeusia (Daily, Grade ½) was 2 (5) N (%). The Dyspnea (Daily, Grade ½) was 6 (16) N (%), the Fatigue/Asthenia (Daily, Grade ½) was 31 (81) N (%) and the Flatulence (Daily, Grade ½) was 1 (3) N (%). For the same molecule, the Headache (Daily, Grade ½) was 5 (13) N (%), the Hepatic encephalopathy (Daily, Grade ½) was 0 N (%) and the Hyperbilirubinaemia (Daily, Grade ½) was 2 (5) N (%). The Hyperkalemia (Daily, Grade ½) was 2 (5) N (%), the Hypocalcemia (Daily, Grade ½) was 2 (5) N (%) and the Hypokalemia (Daily, Grade ½) was 1 (3) N (%). For the same molecule, the Hyponatremia (Daily, Grade ½) was 1 (3) N (%), the Infection (Daily, Grade ½) was 1 (3) N (%) and the Insomnia (Daily, Grade ½) was 7 (18) N (%). The Mental status changes (Daily, Grade ½) was 0 N (%), the Nausea (Daily, Grade ½) was 22 (58) N (%) and the Pain (Daily, Grade ½) was 6 (16) N (%). For the same molecule, the Pancreatitis (Daily, Grade ½) was 0 N (%), the Peripheral edema (Daily, Grade ½) was 5 (13) N (%) and the “Pleural Effusion” value (Daily, Grade ½) was 1 (3) N (%). For the same molecule, the Pneumatosis intestinalis (Daily, Grade ½) was 0 N (%), the Pneumonia (Daily, Grade ½) was 0 N (%) and the Proteinurea (Daily, Grade ½) was 0 N (%). The Pyrexia (Daily, Grade ½) was 4 (11) N (%), the “Renal Failure” value (Daily, Grade ½) was 0 N (%) and the Sinusitis (Daily, Grade ½) was 4 (11) N (%). The “Small intestinal obstruction (ileus)” value (Daily, Grade ½) was 0 N (%), the “Troponin I or T increased” value (Daily, Grade ½) was 2 (5) N (%) and the “Urinary Tract Infection” value (Daily, Grade ½) was 5 (13) N (%). For the same molecule, the Vomiting (Daily, Grade ½) was 13 (34) N (%), the Weight decreased (Daily, Grade ½) was 11 (29) N (%) and the “White blood cells increased” value (Daily, Grade ½) was 0 N (%).
